Data reported in US11873288B2, “Inhibitors for soluble epoxide hydrolase (sEH) and fatty acid amide hydrolase (FAAH)” (The Regents of the University of California, priority 2016, dated 2024).

Legend:
FAAH = target: T1, FAAH (Felis catus, UniProt A0ABI8A862); conditions: read-out: FAAH IC50, Cat; brain microsome preparations
T1 sequence (A0ABI8A862 1-541): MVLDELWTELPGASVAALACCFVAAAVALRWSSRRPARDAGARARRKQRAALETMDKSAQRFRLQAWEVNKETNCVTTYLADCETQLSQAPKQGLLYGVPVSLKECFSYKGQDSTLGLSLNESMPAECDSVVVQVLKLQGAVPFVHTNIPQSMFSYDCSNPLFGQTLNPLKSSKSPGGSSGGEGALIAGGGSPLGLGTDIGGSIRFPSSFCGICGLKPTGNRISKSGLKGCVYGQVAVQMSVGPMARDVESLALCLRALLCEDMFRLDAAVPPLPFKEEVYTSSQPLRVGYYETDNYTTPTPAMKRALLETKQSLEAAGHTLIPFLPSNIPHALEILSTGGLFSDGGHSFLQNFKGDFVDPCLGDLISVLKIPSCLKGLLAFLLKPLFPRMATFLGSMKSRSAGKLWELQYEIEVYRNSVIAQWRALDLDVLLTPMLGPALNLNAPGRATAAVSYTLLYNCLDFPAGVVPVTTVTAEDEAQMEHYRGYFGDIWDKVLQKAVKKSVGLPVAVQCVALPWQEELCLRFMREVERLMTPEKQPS

MAGL = target: T2, MAGL (Homo sapiens, UniProt Q99685); assay: serine hydrolase selectivity panel: MAGL
T2 sequence (Q99685 1-303): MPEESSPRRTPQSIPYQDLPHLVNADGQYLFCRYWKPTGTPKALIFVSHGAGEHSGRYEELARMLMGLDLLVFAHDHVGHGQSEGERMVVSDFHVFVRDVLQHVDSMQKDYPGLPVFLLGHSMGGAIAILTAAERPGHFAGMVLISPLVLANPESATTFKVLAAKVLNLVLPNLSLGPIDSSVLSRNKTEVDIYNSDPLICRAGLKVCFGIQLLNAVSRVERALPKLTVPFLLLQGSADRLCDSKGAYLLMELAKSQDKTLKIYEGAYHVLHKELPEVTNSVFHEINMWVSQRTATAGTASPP

hsEH = target: T3, hsEH (Homo sapiens, UniProt P34913); assay: human sEH inhibition (hsEH IC50); assay type: biochemical
T3 sequence (P34913 1-555): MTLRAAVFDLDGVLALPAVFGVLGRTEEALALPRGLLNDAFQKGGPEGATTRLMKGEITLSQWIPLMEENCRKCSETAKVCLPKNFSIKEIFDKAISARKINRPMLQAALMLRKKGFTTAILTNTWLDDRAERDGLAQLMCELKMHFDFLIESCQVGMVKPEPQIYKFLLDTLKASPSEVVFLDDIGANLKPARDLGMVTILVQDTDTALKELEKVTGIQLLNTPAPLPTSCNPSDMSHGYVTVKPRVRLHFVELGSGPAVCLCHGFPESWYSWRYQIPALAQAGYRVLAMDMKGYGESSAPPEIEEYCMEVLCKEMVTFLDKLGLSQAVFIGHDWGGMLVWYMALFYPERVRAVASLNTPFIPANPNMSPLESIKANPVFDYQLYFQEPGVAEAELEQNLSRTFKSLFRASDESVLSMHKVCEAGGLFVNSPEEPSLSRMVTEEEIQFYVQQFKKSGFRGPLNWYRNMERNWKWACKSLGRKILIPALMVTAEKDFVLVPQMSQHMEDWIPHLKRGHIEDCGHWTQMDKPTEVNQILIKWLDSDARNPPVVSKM

hFAAH [1] = target: T4, hFAAH (Homo sapiens, UniProt O00519); assay: recombinant FAAH enzyme with fluorescent substrate OMP (hFAAH IC50, screen); assay type: biochemical
T4 construct: made in house
T4 sequence (O00519 1-579): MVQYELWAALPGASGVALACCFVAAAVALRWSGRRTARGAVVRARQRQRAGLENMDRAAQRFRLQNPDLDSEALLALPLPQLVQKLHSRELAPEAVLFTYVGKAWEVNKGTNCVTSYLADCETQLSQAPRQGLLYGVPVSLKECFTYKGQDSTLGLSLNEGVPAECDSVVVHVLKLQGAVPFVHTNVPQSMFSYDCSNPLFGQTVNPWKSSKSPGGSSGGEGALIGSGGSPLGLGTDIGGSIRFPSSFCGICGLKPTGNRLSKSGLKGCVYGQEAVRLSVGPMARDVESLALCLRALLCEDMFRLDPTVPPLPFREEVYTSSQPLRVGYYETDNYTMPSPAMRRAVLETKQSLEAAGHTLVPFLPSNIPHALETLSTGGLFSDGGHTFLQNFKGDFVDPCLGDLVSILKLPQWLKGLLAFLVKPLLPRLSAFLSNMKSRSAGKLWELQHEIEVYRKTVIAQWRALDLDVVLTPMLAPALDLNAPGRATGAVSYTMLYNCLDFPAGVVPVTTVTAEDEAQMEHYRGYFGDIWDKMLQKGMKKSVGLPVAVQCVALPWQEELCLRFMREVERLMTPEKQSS

hFAAH [2] = target: T4, hFAAH; assay: hFAAH inhibition kinetics (KD, k2); assay type: biochemical
sEH = target: T5, sEH (Rattus norvegicus, UniProt P80299); assay: biochemical
T5 sequence (P80299 1-554): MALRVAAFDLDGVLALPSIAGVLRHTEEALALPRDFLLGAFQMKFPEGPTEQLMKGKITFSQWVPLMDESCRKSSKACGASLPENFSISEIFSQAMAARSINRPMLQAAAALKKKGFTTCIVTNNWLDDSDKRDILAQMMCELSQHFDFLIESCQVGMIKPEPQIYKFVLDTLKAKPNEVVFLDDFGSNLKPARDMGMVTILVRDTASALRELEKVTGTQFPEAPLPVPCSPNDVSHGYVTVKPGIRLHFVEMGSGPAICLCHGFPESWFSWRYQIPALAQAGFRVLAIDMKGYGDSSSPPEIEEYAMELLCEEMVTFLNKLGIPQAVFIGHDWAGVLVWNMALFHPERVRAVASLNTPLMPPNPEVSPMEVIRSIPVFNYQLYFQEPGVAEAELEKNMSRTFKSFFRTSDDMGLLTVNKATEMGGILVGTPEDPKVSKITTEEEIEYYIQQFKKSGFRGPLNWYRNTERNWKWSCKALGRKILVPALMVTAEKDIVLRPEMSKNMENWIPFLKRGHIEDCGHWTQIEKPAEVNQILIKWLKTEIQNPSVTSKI

IC50 (MAGL) [nM]	Structure (SMILES)	IC50 (FAAH) [nM]	IC50 (hsEH) [nM]	increase of activity/potency towards sEH (hsEH) [fold]	IC50 (hFAAH [1]) [nM]	Kd (hFAAH [2]) [nM]	hFAAH k2 (hFAAH [2]) [min⁻¹]	IC50 (sEH) [nM]
> 10000	O=C(Nc1ccc(OC(F)(F)F)cc1)N[C@H]1CC[C@H](Oc2ccc(C(=O)OCc3ccccc3)cc2)CC1 [Compound A-14, benzyl 4-((trans-4-(3-(4-(trifluoromethoxy)phenyl)ureido)cyclohexyl)oxy) benzoate]	> 1000						
> 10000	O=C(Nc1ccc(OC(F)(F)F)cc1)N[C@H]1CC[C@H](Oc2ccc(O)cc2)CC1 [Compound A-21, trans-1-(−4-(4-hydroxy-phenoxy)cyclohexyl)-3-(4-(trifluoromethoxy)phenyl)urea]	130						
	COc1ccc(NC(=O)N2CCC(Cc3cnc4ccccc4c3)CC2)cc1 [Compound B-5, N-(4-methoxyphenyl)-4-(quinolin-3-ylmethyl)piperidine-1-carboxamide]		130 ± 40	4	32	24 ± 4	0.37 ± 0.03	
	COc1ccc(NC(=O)N2CCC(Cc3ccc4ccccc4c3)CC2)cc1 [Compound B-8, N-(4-methoxyphenyl)-4-(naphthalen-2-ylmethyl)piperidine-1-carboxamide]		120 ± 30		7.4	18 ± 4	0.26 ± 0.03	
	COc1ccc(NC(=O)N2CCC(c3nc(-c4ccccc4)cs3)CC2)cc1 [Compound B-10, N-(4-methoxyphenyl)-4-(4-phenylthiazol-2-yl)piperidine-1-carboxamide]		570 ± 170		250	750 ± 20	0.55 ± 0.02	
	O=C(Nc1cccnc1)N1CCC(Cc2cccc(Oc3ccc(C(F)(F)F)cn3)c2)CC1 [PF-3845]	< 0.1			0.4			

Structure (SMILES)	IC50 (MAGL) [nM]	IC50 (FAAH) [nM]	IC50 (hsEH) [nM]	increase of activity/potency towards sEH (hsEH) [fold]	IC50 (hFAAH [1]) [nM]	Kd (hFAAH [2]) [nM]	hFAAH k2 (hFAAH [2]) [min⁻¹]	IC50 (sEH) [nM]
O=C(Nc1ccc(OC(F)(F)F)cc1)N[C@H]1CC[C@H](Oc2ccc(C(=O)O)cc2)CC1 [t-TUCB, trans-4-{4-[3-(4-trifluoromethoxyphenyl)-ureido]cyclohexyloxy}benzoic acid]	> 10000	> 1000						54
